Measurements reported in patent publication US4656166A, “Antibiotic compounds derived from cephalosporins, process for their production and pharmaceutical compositions” (Sanofi, priority 1983, dated 1987).
≈ marks a conversion by molar mass, not a printed value.

Key:
Format in all cases: cell-based
[1] = tested on: Serrtia liquefaciens SL/326 A; experiment: MIC on beta-lactamase producing strain Serratia liquefaciens SL/326 A (Table IV)
Description: (§1) To evaluate the stability of these products towards beta-lactamases, their MIC was determined on isogenic strains producing and not producing beta-lactamases.
(§2) The results are expressed in μg/ml in Table IV.

[2] = tested on: Serrtia liquefaciens SL 1326 S; experiment: MIC on strain not producing beta-lactamase, Serratia liquefaciens SL 1326 S (Table IV); details: SL1326S, not producing beta-lactamases
Description: as §1, §2

[3] = tested on: Proteus vulgaris GN 76/C.1; experiment: MIC on beta-lactamase producing strain Proteus vulgaris GN 76/C.1 (Table IV); details: GN76; Proteus vulgaris GN 76/C.1, producing beta-lactamases; read-out: MIC
Description: as §1, §2

[4] = tested on: Escherichia coli 255/L.7; experiment: MIC on strain not producing beta-lactamase, Escherichia coli 255/L.7 (Table IV); details: Escherichia coli 255/L.7 *, not producing beta-lactamases; read-out: MIC
Description: as §1, §2

[5] = tested on: Escherichia coli 255; experiment: MIC on beta-lactamase producing strain Escherichia coli 255 (Table IV); details: Escherichia coli 255, producing beta-lactamases; read-out: MIC
Description: as §1, §2

[6] = tested on: Proteus vulgaris RL 99 bis; experiment: MIC, in vitro dilution method, Proteus vulgaris RL 99 bis (Table III); details: RL99BIS; Proteus vulgaris RL 99 bis; dilution method; read-out: MIC
Description: (§3) The products of the invention have been studied as regards their pharmacological properties and, more especially, bacteriostatic action. This has been determined in vitro by the dilution method, and the study was on Gram negative strains.
(§4) Results, expressed in minimum inhibiting concentrations (MIC-- μg/ml), are collected in the following table (Table III).

[7] = tested on: Serratia RL 72; experiment: MIC, in vitro dilution method, Serratia RL 72 (Table III); details: RL72
Description: as §3, §4

[8] = tested on: Citrobacter RL 49; experiment: MIC, in vitro dilution method, Citrobacter RL 49 (Table III); details: RL49; Citrobacter RL 49; dilution method; read-out: MIC
Description: as §3, §4

[9] = tested on: Klebsiella RO 30; experiment: MIC, in vitro dilution method, Klebsiella RO 30 (Table III); details: RO30; Klebsiella RO 30; dilution method; read-out: MIC
Description: as §3, §4

[10] = tested on: Escherichia coli SOL 90; experiment: MIC, in vitro dilution method, Escherichia coli SOL 90 (Table III); details: SOL90; Escherichia coli SOL 90; dilution method; read-out: MIC
Description: as §3, §4

[11] = tested on: Enterobacter RO 154; experiment: MIC, in vitro dilution method, Enterobacter RO 154 (Table III); details: RO154; Enterobacter RO 154; dilution method; read-out: MIC
Description: as §3, §4

[12] = tested on: Pseudomonas RL 112; experiment: MIC, in vitro dilution method, Pseudomonas RL 112 (Table III); details: RL112
Description: as §3, §4

| SMILES | MIC [1] [µg/mL] | MIC [2] [µg/mL] | MIC [3] [µg/mL] | MIC [4] [µg/mL] | MIC [5] [µg/mL] | MIC [6] [µg/mL] | MIC [7] [µg/mL] | MIC [8] [µg/mL] | MIC [9] [µg/mL] | MIC [10] [µg/mL] | MIC [11] [µg/mL] | MIC [12] [µg/mL] |
| --- | --- | --- | --- | --- | --- | --- | --- | --- | --- | --- | --- | --- |
| CC(C)(ON=C(C(=O)NC1C(=O)N2C(C(=O)O)=C(CSC(=O)C3CCN(C(=O)CN)CC3)C[S+]([O-])C12)c1csc(N)n1)C(=O)O (centres unmarked) [compound 42673] | 0.25 (≈ 0.365 µM) | 0.0625 (≈ 0.0911 µM) | 0.25 (≈ 0.365 µM) | 0.25 (≈ 0.365 µM) | 0.25 (≈ 0.365 µM) |  |  |  |  |  |  |  |
| CCNCc1ccc(C(=O)OCC2=C(C(=O)O)N3C(=O)C(NC(=O)/C(=N\OC(C)(C)C(=O)O)c4csc(N)n4)C3[S+]([O-])C2)cc1 (centres unmarked) [42 396] |  |  |  |  |  | ≤ 0.125 | 1 (≈ 1.51 µM) | ≤ 0.125 | ≤ 0.125 | ≤ 0.125 | ≤ 0.125 | 8 (≈ 12.1 µM) |
| C[C@H](N)C(=O)OCC1=C(C(=O)O)N2C(=O)C(NC(=O)/C(=N\OC(C)(C)C(=O)O)c3csc(N)n3)C2[S+]([O-])C1 (some centres unmarked) [41 733] |  |  |  |  |  | 0.5 (≈ 0.873 µM) | 8 (≈ 14 µM) | 2 (≈ 3.49 µM) | 1 (≈ 1.75 µM) | 2 (≈ 3.49 µM) | 1 (≈ 1.75 µM) | 8 (≈ 14 µM) |
| CC(ON=C(C(=O)NC1C(=O)N2C(C(=O)O)=C(CSC(=O)C3CCNCC3)C[S+]([O-])C12)c1csc(N)n1)C(=O)O (centres unmarked) [compound 42218] |  |  |  |  |  | 0.5 (≈ 0.813 µM) | 2 (≈ 3.25 µM) | 0.25 (≈ 0.407 µM) | 0.5 (≈ 0.813 µM) | 0.5 (≈ 0.813 µM) | 0.5 (≈ 0.813 µM) | 64 (≈ 104 µM) |
| CC(C)(O/N=C(\C(=O)NC1C(=O)N2C(C(=O)O)=C(COC(=O)CC3CCCCN3)C[S+]([O-])C12)c1csc(N)n1)C(=O)O (centres unmarked) [42 371] |  |  |  |  |  | ≤ 0.125 | 0.5 (≈ 0.798 µM) | 0.25 (≈ 0.399 µM) | 0.25 (≈ 0.399 µM) | 0.5 (≈ 0.798 µM) | 0.25 (≈ 0.399 µM) | 8 (≈ 12.8 µM) |
| NC[C@H]1CC[C@H](C(=O)OCC2=C(C(=O)O)N3C(=O)C(NC(=O)/C(=N\OC4(C(=O)O)CCC4)c4csc(N)n4)C3[S+]([O-])C2)CC1 (some centres unmarked) [42 212] |  |  |  |  |  | ≤ 0.12 | 0.25 (≈ 0.383 µM) | ≤ 0.12 | ≤ 0.12 | ≤ 0.12 | ≤ 0.12 | 4 (≈ 6.13 µM) |
| Cc1cc(C(=O)OCC2=C(C(=O)O)N3C(=O)C(NC(=O)/C(=N\OC(C)(C)C(=O)O)c4csc(N)n4)C3[S+]([O-])C2)ccc1CN (centres unmarked) [42 380] |  |  |  |  |  | ≤ 0.125 | 1 (≈ 1.54 µM) | ≤ 0.125 | ≤ 0.125 | ≤ 0.125 | ≤ 0.125 | 4 (≈ 6.17 µM) |
| CC(C)(ON=C(C(=O)NC1C(=O)N2C(C(=O)O)=C(COC(=O)C3CCCCC3CN)C[S+]([O-])C12)c1csc(N)n1)C(=O)O (centres unmarked) [42 321] |  |  |  |  |  | ≤ 0.125 | 1 (≈ 1.56 µM) | 0.5 (≈ 0.78 µM) | 0.5 (≈ 0.78 µM) | 0.5 (≈ 0.78 µM) | 0.25 (≈ 0.39 µM) | 8 (≈ 12.5 µM) |
| CC(C)(O/N=C(\C(=O)NC1C(=O)N2C(C(=O)O)=C(COC(=O)[C@@H](N)CCCCN)C[S+]([O-])C12)c1csc(N)n1)C(=O)O (some centres unmarked) [41 888] |  |  |  |  |  | 1 (≈ 1.59 µM) | 8 (≈ 12.7 µM) | 2 (≈ 3.18 µM) | 1 (≈ 1.59 µM) | 2 (≈ 3.18 µM) | 8 (≈ 12.7 µM) | 8 (≈ 12.7 µM) |
| CC(O/N=C(\C(=O)NC1C(=O)N2C(C(=O)O)=C(COC(=O)c3ccc(CN)cc3)C[S+]([O-])C12)c1csc(N)n1)C(=O)O (centres unmarked) [42 216] |  |  |  |  |  | ≤ 0.12 | 0.5 (≈ 0.806 µM) | ≤ 0.12 | ≤ 0.12 | ≤ 0.12 | ≤ 0.12 | 8 (≈ 12.9 µM) |
| NCc1cccc(C(=O)OCC2=C(C(=O)O)N3C(=O)C(NC(=O)/C(=N\OC4(C(=O)O)CCC4)c4csc(N)n4)C3[S+]([O-])C2)c1 (centres unmarked) [42 462] |  |  |  |  |  | ≤ 0.125 | 0.5 (≈ 0.773 µM) | ≤ 0.125 | ≤ 0.125 | 0.25 (≈ 0.387 µM) | ≤ 0.125 | 4 (≈ 6.19 µM) |
| CC(C)(O/N=C(\C(=O)NC1C(=O)N2C(C(=O)O)=C(COC(=O)c3cccc(NC(=O)CN)c3)C[S+]([O-])C12)c1csc(N)n1)C(=O)O (centres unmarked) [42 374] |  |  |  |  |  | ≤ 0.125 | 1 (≈ 1.48 µM) | 0.25 (≈ 0.369 µM) | 0.25 (≈ 0.369 µM) | 0.5 (≈ 0.738 µM) | 0.25 (≈ 0.369 µM) | 4 (≈ 5.9 µM) |
| Nc1nc(/C(=N/OC2(C(=O)O)CCC2)C(=O)NC2C(=O)N3C(C(=O)O)=C(COC(=O)C4(N)CCCC4)C[S+]([O-])C23)cs1 (centres unmarked) [42 210] |  |  |  |  |  | 0.25 (≈ 0.4 µM) | 1 (≈ 1.6 µM) | 0.5 (≈ 0.8 µM) | 0.5 (≈ 0.8 µM) | 1 (≈ 1.6 µM) | 0.25 (≈ 0.4 µM) | 4 (≈ 6.4 µM) |
